For series [1], the target named is T1, NRP-1 (neuropilin-1), binding of bt-VEGF165 (Homo sapiens, UniProt O14786). The series can be described thus: ELISA: inhibition of bt-VEGF165 binding to NRP-1. The following applies: for Inhibition of bt-VEGF165 Binding to NRP-1 [10 µM] / inhibition at 10 µM: mean ± S.D. The protocol:
The inhibitory activity of obtained triazolopeptides 1–23 toward binding of VEGF165 to NRP-1 was measured with the enzyme-linked immunosorbent assay (ELISA). This protocol was described earlier in the literature and was broadly used by our group. VEGF165 was used in biotinylated form (bt-VEGF165).
This assay was carried out according to a previously described method.
(ELISA stands for enzyme-linked immunosorbent assay.)

A short description of series [2]: Proteolytic stability by incubation in human plasma at 37 °C (HPLC-MS). Type of series: in vitro ADME. The settings on record: for remaining at 8 h, 1.1 µmol/mL / remaining at 16 h, 1.1 µmol/mL / remaining at 24 h, 1.1 µmol/mL / remaining at 32 h, 1.1 µmol/mL / remaining at 40 h, 1.1 µmol/mL / remaining at 48 h, 1.1 µmol/mL: human; for remaining at 8 h, 1.1 µmol/mL / remaining at 16 h, 1.1 µmol/mL / remaining at 24 h, 1.1 µmol/mL / remaining at 32 h, 1.1 µmol/mL / remaining at 40 h, 1.1 µmol/mL / remaining at 48 h, 1.1 µmol/mL / half-life: pooled human plasma. As to the method: The samples of the incubated solutions were taken at constant time intervals (every 8 h) and analyzed with the use of HPLC-MS. This technique allows for determination of the proteolysis rate, and enables finding the cleavage sites by structural determination of appearing metabolites. To this aim, we used a previously established protocol.
The human plasma was provided by Mossakowski Medical Research Centre Polish Academy of Sciences (venous blood was obtained from three healthy donors and plasma samples were pooled in equal volumes). Triazolopeptide stock solution was prepared to achieve concentration ca. 1.4 mg/mL. Then, this solution was diluted two-fold into human plasma, affording a final concentration of ca. 1.1 µmol/mL. The samples were mixed on vortex mixer and incubated at 37 °C with 700 rpm mixing in thermoblock. Samples of 100 µL were taken every 8 h; the enzymatic cleavage was quenched by addition of 200 µL of 15% aqueos trichloroacetic acid and vortexed for a while. Precipitated proteins were then centrifuged at 14,000 rpm and 4 °C for 10 min to pellet them. After that, 150 µL of supernatant was taken and analyzed on HPLC-MS (quadrupole mass analyzer and electrospray ionization source). The system was equipped with Jupiter Proteo column I.D. 2.0 mm × 250 mm, phase A: ultrapure water + 0.05% TFA, phase B: gradient grade acetonitrile + 0.05% TFA, detection at 210 nm, quadrupole fixed on scan mode. Elution was with linear increase from 0% to 15% of phase B in 30 min, flow = 0.2 mL/min. All samples were analyzed trice in independent experiments.

Another series can be described thus: in vitro. The settings on record: mouse, cell viability (Muse Cell Analyser), single replicates.
Series [3] deals with myeloblast-like cell line derived from bone marrow (32D). The series can be described thus: In vitro cell survival test (Muse Count & Viability Kit). The settings on record: 32D cells.
Description: For this reason, we carried out a preliminary cytotoxicity assay on murine progenitor cells (myeloblast-like cell line derived from long term cultures of bone marrow 32D) to investigate the impact of 4 at different concentrations on their viability.
For the cell survivability test, the myeloblast-like cell line derived from long term cultures of bone marrow (32D, ATCC #CRL-11346) was used. Experiments were carried out using Muse Count & Viability Kit and Muse Cell Analyzer (Merck Millipore) according to the procedure given. Cells were incubated for 24 or 48 h with given 4 concentration. Each experiment was performed in three technical replications in three independent experiments.
Series [4] has as its target T1, NRP-1 (neuropilin-1), binding of bt-VEGF165. The settings on record: cited from earlier work.
The subject of series [5] is drug-resistant MDA-MB-231 human breast cancer cells xenograft. Further details: method as in PMID 16959272. The following applies: nude mice xenografted with drug-resistant MDA-MB-231 human breast cancer cells; cited from earlier work.
On the set-up of series [6]: method as in PMID 30241012. The following applies: human plasma; cited from earlier work.
The mark [7] stands for this setting: read-out: Relative (peak area average vs 0 h).

A word on the inhibition: it is the change of the read-out against control, counted positive when it falls. Read a low inhibition as little suppression. By IC50 is commonly meant the concentration needed to halve the response being measured. Broadly, the half-life is how long it takes for the measured level to halve. High values mean slow decline, low ones rapid decline. By viability is commonly meant the share of living cells, or the viability signal relative to a control.

Values joined by “and” are separate entries in the source; they are usually repeats but may differ in a detail not shown here. Equal entries are not always repeated. “Also recorded” adds a separate entry of the source. Where two headings read alike, the source gives them in different places. Where no end group is shown, it is not given here. [ ]: non-standard residue; d: D form. hArg = N=C(N)NCCCC[C@H](N)C(=O)O; Dab = NCC[C@H](N)C(=O)O

T1 sequence (O14786 22-923, species assumed): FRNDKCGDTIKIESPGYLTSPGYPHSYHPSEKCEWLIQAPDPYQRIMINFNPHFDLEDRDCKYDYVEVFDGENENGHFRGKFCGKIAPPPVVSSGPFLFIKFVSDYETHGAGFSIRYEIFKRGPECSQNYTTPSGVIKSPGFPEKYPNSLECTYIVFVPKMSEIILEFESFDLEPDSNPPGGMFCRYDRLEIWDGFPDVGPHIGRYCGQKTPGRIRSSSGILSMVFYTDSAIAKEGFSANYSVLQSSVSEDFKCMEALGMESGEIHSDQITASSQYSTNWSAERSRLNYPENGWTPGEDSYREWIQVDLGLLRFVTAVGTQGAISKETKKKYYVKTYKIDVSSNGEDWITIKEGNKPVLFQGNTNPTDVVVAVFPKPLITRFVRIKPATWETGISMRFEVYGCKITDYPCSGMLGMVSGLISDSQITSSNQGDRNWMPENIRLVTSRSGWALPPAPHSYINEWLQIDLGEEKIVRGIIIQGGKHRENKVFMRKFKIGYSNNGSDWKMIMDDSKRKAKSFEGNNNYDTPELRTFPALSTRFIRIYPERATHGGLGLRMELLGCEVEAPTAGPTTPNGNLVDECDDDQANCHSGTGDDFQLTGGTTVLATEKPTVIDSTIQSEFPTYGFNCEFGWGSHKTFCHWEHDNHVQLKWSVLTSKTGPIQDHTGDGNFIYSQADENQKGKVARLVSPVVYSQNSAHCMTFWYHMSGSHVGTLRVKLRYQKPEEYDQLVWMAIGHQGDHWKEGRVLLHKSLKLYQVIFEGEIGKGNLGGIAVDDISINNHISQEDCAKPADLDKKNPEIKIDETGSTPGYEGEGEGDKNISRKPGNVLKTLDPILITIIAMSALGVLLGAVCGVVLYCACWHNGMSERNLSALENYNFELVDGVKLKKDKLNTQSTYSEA

With “Dab(Har)-GlyΨ[Trl]GlyΨ[Trl]Arg [Compound 17]”, in series [1], the “Inhibition of bt-VEGF165 Binding to NRP-1 [10 µM]” value (shortened to “Inhibition of bt-VEGF165 Binding”) amounted to 41.3 ± 0.5%.

In series [1], `N=C(N)NCCCC[C@@H](N)C(=O)NCCCC[C@@H](N)C(=O)NCc1cn(Cc2cn([C@@H](CCCNC(=N)N)C(=O)O)nn2)nn1` [Compound 5, D-Lys(D-Har)-GlyΨ[Trl]GlyΨ[Trl]Arg] gave an inhibition at 10 µM of 48.5 ± 2.9%. This compound also yielded an IC50 in series [1] (dose-response curve, supplement) of 9.11 µM.

Take Har-GlyΨ[Trl]GlyΨ[Trl]Arg [Compound 23]: in series [1], the “Inhibition of bt-VEGF165 Binding” value is given as 20.0 ± 2.1%.

In the case of “Har-Ala-GlyΨ[Trl]GlyΨ[Trl]Arg [Compound 21]”, the “Inhibition of bt-VEGF165 Binding” value in series [1] came out at 27.8 ± 2.1%.

For “Har-6Ahx-GlyΨ[Trl]GlyΨ[Trl]Arg [Compound 19]”, the “Inhibition of bt-VEGF165 Binding” value in series [1] turned out to be 30.5 ± 0.6%.

D-Lys(Har)-GlyΨ[Trl]Arg [Compound 2]: the “Inhibition of bt-VEGF165 Binding” value in series [1] turned out to be 33.1 ± 1.9%.

“D-Lys(Har)-Phe-GlyΨ[Trl]Arg [Compound 9]”: in series [1], the “Inhibition of bt-VEGF165 Binding” value came out at 37.9 ± 1.1%.

In series [1], `N=C(N)NCCCC[C@H](N)C(=O)NCCCC[C@@H](N)C(=O)NCc1cn(Cc2cn([C@@H](CCCNC(=N)N)C(=O)O)nn2)nn1` [Compound 4, D-Lys(Har)-GlyΨ[Trl]GlyΨ[Trl]Arg] had an IC50 of 10.2 µM and an inhibition at 10 µM of 52.6 ± 1.3%. In addition, in series [2], the “compound remained in the solution after 48 h of incubation” value is on record as “almost undigested; also recorded: almost non-degraded” and the half-life is more than 48 h. Moreover, in series [2] (setting [7]), the remaining at 8 h, 1.1 µmol/mL stood at 99.4%; the remaining at 16 h, 1.1 µmol/mL came to 95.7%; the remaining at 24 h, 1.1 µmol/mL came to 93.3%; the remaining at 32 h, 1.1 µmol/mL came to 93.1%. In series [2] (setting [7]), the remaining at 40 h, 1.1 µmol/mL is 93% and the remaining at 48 h, 1.1 µmol/mL was found to be 91.8%. For the same compound, in the series “in vitro”, the viability at 24 h, 0.1 µM turned out to be 99.4%; the viability at 24 h, 1 µM came to 99.3%; the viability at 24 h, 10 µM was determined as 99%; the viability at 24 h, 50 µM was found to be 98.7%. In the series “in vitro”, this compound returned a viability at 24 h, 100 µM of 98.6%; a viability at 48 h, 0.1 µM of 99.4%; a viability at 48 h, 1 µM of 99.6%; a viability at 48 h, 10 µM of 99.4%. In the series “in vitro”, this compound gave a viability at 48 h, 50 µM of 99.7% and a viability at 48 h, 100 µM of 99.2%. Moreover, in series [3] (100 µM, 48 h incubation), the “impact on cell survivability” value is “does not exhibit any significant impact on normal cells’ viability; also recorded: does not exhibit any significant impact on cell survivability”. Also, in series [3] (different concentrations), the “cell survival, t-test” value is “No significant differences in cell survival”.

For Lys(Har)-GlyΨ[Trl]Arg [Compound 1], in series [1], the “Inhibition of bt-VEGF165 Binding” value was 28.1 ± 1.2%.

Consider “D-Lys(Fmoc-Har)-GlyΨ[Trl]GlyΨ[Trl]Arg [Compound 15]”, for which the “Inhibition of bt-VEGF165 Binding” value in series [1] was determined as 43.7 ± 0.5%.

For Lys(Har)-GlyΨ[Trl]Gly-Arg [Compound 11], in series [1], the “Inhibition of bt-VEGF165 Binding” value was determined as 30.6 ± 1.1%.

Take “Dap(Har)-GlyΨ[Trl]GlyΨ[Trl]Arg [Compound 18]”: the “Inhibition of bt-VEGF165 Binding” value in series [1] is on record as 25.3 ± 3.5%.

As for “Har-Gly-GlyΨ[Trl]GlyΨ[Trl]Arg [Compound 22]”, in series [1], the “Inhibition of bt-VEGF165 Binding” value is listed as 35.7 ± 1.6%.

Regarding ATWKPPR [A7R], in series [4], the “Inhibition of bt-VEGF165 Binding” value is 61.0 ± 0.4 ^3% and the IC50 is 5.86 µM. Besides, the activity in vivo result in series [5] is given as “active in vivo”.

With Lys(Har)-Pro-GlyΨ[Trl]Arg [Compound 6], the “Inhibition of bt-VEGF165 Binding” value in series [1] turned out to be 18.3 ± 0.9%.

Consider Lys(Har)-Dap-Pro-Arg, for which, in series [4], the “Inhibition of bt-VEGF165 Binding” value is 96.8% and the IC50 was 0.2 µM. The t1/2 in series [6] was 41 h.

Take Lys(Har)-Pro-Ala-Arg: the t1/2 in series [6] was 0.65 h.

Turning to `N=C(N)NCCCC[C@H](N)C(=O)NCCCC[C@H](N)C(=O)NCc1cn(Cc2cn([C@@H](CCCNC(=N)N)C(=O)O)nn2)nn1` [Compound 3, Lys(Har)-GlyΨ[Trl]GlyΨ[Trl]Arg], in series [1], the IC50 was 8.39 µM and the inhibition at 10 µM came out at 58.1 ± 2.1%. Also, in series [2], the “compound remained in the solution after 48 h of incubation” value is recorded as “more than 70%” and the half-life is more than 48 h. Further, in series [2] (setting [7]), the remaining at 8 h, 1.1 µmol/mL was found to be 91.3%; the remaining at 16 h, 1.1 µmol/mL came out at 90%; the remaining at 24 h, 1.1 µmol/mL stood at 87.6%; the remaining at 32 h, 1.1 µmol/mL stood at 81.8%. Further, in series [2] (setting [7]), the remaining at 40 h, 1.1 µmol/mL stood at 73.4% and the remaining at 48 h, 1.1 µmol/mL was determined as 72.2%. Also, the remaining at 48 h, 1.1 µmol/mL in series [2] (read-out: compound remained in the solution after 48 h of incubation) was approximately 70%.

As to Lys(Har)-Dab-Pro-Arg, in series [4], the “Inhibition of bt-VEGF165 Binding” value is recorded as 98.5% and the IC50 was 0.2 µM. Besides, the t1/2 in series [6] is given as 34 h.

In the case of Lys(Har)-GlyΨ[Trl]Ala-Arg [Compound 10], the “Inhibition of bt-VEGF165 Binding” value in series [1] was 43.3% and 43.2 ± 1.5%.

With Lys(Har)-Pro-Dab-Arg (K(hArg)P[Dab]R), in series [4], the IC50 is 0.3 µM.

On to Lys(Har)-Pro-Dab-Arg, for which the t1/2 in series [6] is 0.733 h.

For the compound Lys(Har)-Pro-Ala-Arg (KPAR), the IC50 in series [4] is 0.2 µM.

Har-Pro-GlyΨ[Trl]Arg [Compound 12]: the “Inhibition of bt-VEGF165 Binding” value in series [1] is 9.2 ± 0.8%.

As to “Har-Lys-GlyΨ[Trl]GlyΨ[Trl]Arg [Compound 16]”, in series [1], the “Inhibition of bt-VEGF165 Binding” value worked out at 36.5 ± 1.4%.

For “Har-5Ava-GlyΨ[Trl]GlyΨ[Trl]Arg [Compound 20]”, the “Inhibition of bt-VEGF165 Binding” value in series [1] is 29.7 ± 1.8%.

Turning to “Lys-Pro-Pro-Arg (KPPR; printed: Lys-Pro-Pro-Arg)”, in series [4], the “Inhibition of bt-VEGF165 Binding” value is 64.5% and the IC50 was 4.6 µM.

As for “D-Lys(Har)-Pro-GlyΨ[Trl]Arg [Compound 7]”, the “Inhibition of bt-VEGF165 Binding” value in series [1] is reported as 38.4 ± 1.5%.

As to “Har-GlyΨ[Trl]GlyΨ[Trl]GlyΨ[Trl]Arg [Compound 13]”, the “Inhibition of bt-VEGF165 Binding” value in series [1] is recorded as 34.8 ± 1.5%.

“Lys(Fmoc-Har)-GlyΨ[Trl]GlyΨ[Trl]Arg [Compound 14]”: in series [1], the “Inhibition of bt-VEGF165 Binding” value worked out at 57.7 ± 1.8%.

Turning to Lys(Har)-Phe-GlyΨ[Trl]Arg [Compound 8], in series [1], the “Inhibition of bt-VEGF165 Binding” value worked out at 30.9 ± 2.1%.
